Test results taken from PMC8347172, “Optimization and Validation of an In Vitro Standardized Glycogen Phosphorylase Activity Assay” (Molecules, 2021).

Experiments:
[1] = biological target: T1, rabbit muscle glycogen phosphorylase a (GPa) (Oryctolagus cuniculus, UniProt P00489); experiment: colorimetric phosphate release assay (BIOMOL Green); percent inhibition at […], […] °C; assay type: biochemical
T1 construct: gene PYGM
T1 sequence (P00489 2-843): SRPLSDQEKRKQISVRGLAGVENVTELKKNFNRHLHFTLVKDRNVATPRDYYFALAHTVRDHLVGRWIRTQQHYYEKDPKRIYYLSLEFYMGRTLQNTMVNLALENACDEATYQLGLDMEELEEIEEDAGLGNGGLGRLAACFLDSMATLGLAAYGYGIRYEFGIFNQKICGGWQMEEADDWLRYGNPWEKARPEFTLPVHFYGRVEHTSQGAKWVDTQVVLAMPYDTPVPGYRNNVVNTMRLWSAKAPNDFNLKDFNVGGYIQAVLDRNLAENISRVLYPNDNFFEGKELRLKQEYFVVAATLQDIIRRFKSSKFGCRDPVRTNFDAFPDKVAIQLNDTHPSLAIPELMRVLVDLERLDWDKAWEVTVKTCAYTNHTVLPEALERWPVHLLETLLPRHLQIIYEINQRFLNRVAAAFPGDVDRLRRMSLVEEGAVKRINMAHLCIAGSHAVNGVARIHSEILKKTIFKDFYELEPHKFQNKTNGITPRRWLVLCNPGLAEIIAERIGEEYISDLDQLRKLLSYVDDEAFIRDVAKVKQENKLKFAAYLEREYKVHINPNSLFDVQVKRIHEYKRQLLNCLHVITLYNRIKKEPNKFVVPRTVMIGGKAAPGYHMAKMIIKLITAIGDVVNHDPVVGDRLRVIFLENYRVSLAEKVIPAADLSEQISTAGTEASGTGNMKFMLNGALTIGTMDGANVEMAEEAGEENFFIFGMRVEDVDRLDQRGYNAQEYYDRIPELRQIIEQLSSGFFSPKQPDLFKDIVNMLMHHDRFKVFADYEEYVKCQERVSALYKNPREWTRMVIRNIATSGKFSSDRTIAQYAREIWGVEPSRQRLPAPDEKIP

[2] = biological target: T1, rabbit muscle glycogen phosphorylase a (GPa); experiment: colorimetric phosphate release assay (BIOMOL Green), glycogen synthesis direction, […] °C, no glucose; assay type: biochemical
purified protein = substrate: O=P(O)(O)O[C@H]1O[C@H](CO)[C@@H](O)[C@H](O)[C@H]1O; experiment: purified protein

O=c1oc2c(O)c(O)cc3c(=O)oc4c(O)c(O)cc1c4c23 [ellagic acid]
% inhibition at 100 μM [1]: 40.6 ± 4.5

CN(C)C(=O)[C@H](O)[C@H](Cc1ccccc1)NC(=O)c1cc2cc(Cl)ccc2[nH]1 [CP-91149, 5-chloro-N-[(1S,2R)-3-(dimethylamino)-2-hydroxy-3-oxo-1-(phenylmethyl)propyl]-1H-indole-2-carboxamide]
IC50 [2]: 580 ± 90 nM

B1: rabbit muscle glycogen phosphorylase a (GPa) (Oryctolagus cuniculus) (protein)
chain: T1 sequence (P00489 2-843)
Km (purified protein): 150 ± 30 µM
